Data taken from patent publication US8802713B2, “3-alkoxy-1-phenylpyrazole derivatives and pesticides” (Kumiai Chemical Industry Co., Ltd., priority 2007, dated 2014).
Read-outs that look alike come from different tables or passages of the source.

Legend:
two-spotted spider mites = experiment: Miticidal test on two-spotted spider mites (seedling dip); type: in vivo, Tetranvchus urticae; conditions: Glycine max, 312 h, read-out: protective value
Outline: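 Soybean seedlings carrying adult mites were dipped in wettable-powder dilution at 500 ppm active ingredient, air-dried, and held at 25° C for 13 days. Live mites were counted and a protective value calculated.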

brown rice planthopper = experiment: Insecticidal test on brown rice planthopper; type: in vivo; conditions: 144 h
Outline: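 Rice sprouts dipped in 500 ppm active ingredient (water-diluted wettable powder), then exposed to ten third-instar brown rice planthopper larvae. Held at 25° C. for 6 days; dead larvae counted for mortality, single series.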

cotton aphid [1] = experiment: Insecticidal test on cotton aphid (root zone irrigation); type: in vivo; conditions: Aphis gossypii, in Cucumis sativus, 72 h
Experimental: A wettable powder prepared in accordance with Formulation Example 2 was diluted with water to a concentration of an active ingredient of 100 ppm. The root zone of cucumber seedlings which had been inoculated with larvae of cotton aphid was irrigated with 5 mL of the solution. The treated cucumber seedlings were placed in a thermostatic chamber at 25° C. for 3 days, and the live insects were counted for calculation of the mortality by Equation 2. The test was carried out by one series system.

cotton aphid [2] = experiment: Insecticidal test on cotton aphid (seedling dip); type: in vivo; conditions: Aphis gossypii, in Cucumis sativus, 72 h
Outline: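 Cucumber seedlings carrying cotton aphid larvae were dipped in a water-diluted wettable powder at 500 ppm active ingredient, then air-dried. After 3 days at 25° C. live insects were counted and mortality calculated; single series.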

cotton bollworm = experiment: Insecticidal test on cotton bollworm; type: in vivo; conditions: Helicoverpa armigera, 144 h
Experimental: A wettable powder prepared in accordance with Formulation Example 2 was diluted with water to a concentration of an active ingredient of 500 ppm. Cabbage leaves were dipped in this solution and dried in air and then put in a plastic cup having a capacity of 60 mL. Five hatched larvae of cotton bollworm were released in the cup, and the cup was lidded and placed in a thermostatic chamber at 25° C. for 6 days, and the number of dead larvae were assessed for calculation of the mortality by Equation 2. The test was carried out by two series system.

diamondback moth = experiment: Insecticidal test on diamondback moth; type: in vivo; conditions: Plutella xylostella, 144 h
Outline: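 Cabbage leaves were dipped in a wettable-powder dilution at 500 ppm active ingredient, air-dried and given 10 second-instar larvae per cup. Mortality was counted after 6 days at 25 °C, in a single series.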

[3] = tested on: southern root-knot nematodes; experiment: Nematicidal test on root-knot nematode; type: in vivo; conditions: Meloidogyne incognita, 120 h
Experimental: A compound to be tested was dissolved in N,N-dimethylformamide containing 1 mass % of tween 20, and this solution was diluted with distilled water to a concentration of an active ingredient of 20 ppm. 0.5 mL of the solution was mixed with 0.5 mL of a suspension containing about 30 second-instar larvaes of southern root-knot nematodes, and the mixture was placed in a thermostatic chamber at 25° C. for 5 days. The number of dead nematodes and the number of live nematodes were assessed by a microscope for calculation of the mortality by Equation 3. The test was carried out by two series system.

[4] = 500 ppm active ingredient, soybean seedlings with imago mites dipped, 25° C., 13 days

CC(=O)Nc1cc(OCC(F)(F)C(F)(F)F)nn1-c1cc([S+]([O-])CC(F)(F)F)c(C)cc1F (stereo not shown) [1-18, 5-acetylamino-1-{2-fluoro-4-methyl-5-(2,2,2-trifluoroethylsulfinyl)phenyl}-3-(2,2,3,3,3-pentafluoropropoxy)pyrazole]
≥ 90%: pest or weed control at 500 ppm (two-spotted spider mites; [4]) | mortality at 500 ppm (brown rice planthopper) | mortality at 100 ppm (cotton aphid [1]) | mortality at 500 ppm (cotton aphid [2]) | mortality at 500 ppm (cotton bollworm; in Brassica oleracea) | mortality at 500 ppm (diamondback moth; in Brassica oleracea)

Cc1cc(F)c(-n2nc(OCC(F)(F)C(F)(F)F)cc2C)cc1[S+]([O-])CC(F)(F)F (stereo not shown) [1-92, 1-{2-fluoro-4-methyl-5-(2,2,2-trifluoroethylsulfinyl)phenyl}-5-methyl-3-(2,2,3,3,3-pentafluoropropoxy)pyrazole]
≥ 90%: pest or weed control at 500 ppm (two-spotted spider mites; [4]) | mortality at 500 ppm (brown rice planthopper) | mortality at 20 ppm [3] | mortality at 500 ppm (cotton aphid [2])

C#CCNc1cc(OCC(F)(F)C(F)(F)F)nn1-c1cc([S+]([O-])CC(F)(F)F)c(C)cc1F (stereo not shown) [1-162, 1-{2-fluoro-4-methyl-5-(2,2,2-trifluoroethylsulfinyl)phenyl}-3-(2,2,3,3,3-pentafluoropropoxy)-5-(2-propynylamino)pyrazole]
≥ 90%: pest or weed control at 500 ppm (two-spotted spider mites; [4]) | mortality at 20 ppm [3] | mortality at 500 ppm (cotton aphid [2]) | mortality at 500 ppm (cotton bollworm; in Brassica oleracea) | mortality at 500 ppm (diamondback moth; in Brassica oleracea)

CNc1cc(OC(F)(F)C(F)OC(F)(F)C(F)(F)C(F)(F)F)nn1-c1cc([S+]([O-])CC(F)(F)F)c(C)cc1F (stereo not shown) [1-348, 1-{2-fluoro-4-methyl-5-(2,2,2-trifluoroethylsulfinyl)phenyl}-5-methylamino-3-{1,1,2-trifluoro-2-(heptafluoropropoxy)ethoxy}pyrazole]
≥ 90%: pest or weed control at 500 ppm (two-spotted spider mites) | mortality at 20 ppm [3] | mortality at 500 ppm (cotton bollworm; 500 ppm active ingredient, cabbage leaves dipped, hatched larvae, 25° C., 6 days, read-out: mortality) | mortality at 500 ppm (diamondback moth; 500 ppm active ingredient, cabbage leaves dipped, second-instar larvae, 25° C., 6 days, read-out: mortality)
